In PubChem BioAssay (NCI):
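Five compound concentrations were applied to cells in 96-well plates for 48 hours; endpoints were derived by simple linear interpolation of the resulting dose-response curve. TGI: concentration producing complete growth inhibition.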

Tests used:
Experiment in all cases: growth of human tumour cells (NCI), 48 h
[1] = system: NCI-H226 lung
[2] = system: SK-OV-3 ovarian
[3] = system: HCC-2998 colon
[4] = system: M14 melanoma
[5] = system: DU-145 prostate
[6] = system: RXF 393 renal
[7] = system: PC-3 prostate
[8] = system: NCI-H522 lung
[9] = system: A549 NSCLC
[10] = system: 786-0 renal

| SMILES | TGI [1] | TGI [2] | TGI [3] | TGI [4] | TGI [5] | TGI [6] | TGI [7] | TGI [8] | TGI [9] | TGI [10] |
| --- | --- | --- | --- | --- | --- | --- | --- | --- | --- | --- |
| O=C(O)c1cccc(S(=O)(=O)NN2C(=O)CSC2c2ccc(Cl)cc2Cl)c1 (stereo not given) | > 100 µM | > 100 µM | > 100 µM | > 100 µM | > 100 µM | > 100 µM | > 100 µM | 91.4 µM | > 100 µM | 29.4 µM |
| CCOC(=O)CC/C(=N/Nc1ccc(Cl)cc1[N+](=O)[O-])C(=O)OCC | > 100 µM | > 100 µM | 71.5 µM | > 100 µM | > 100 µM | > 100 µM | > 100 µM | > 100 µM | > 100 µM | > 100 µM |
| O=c1onc2n1-c1cc(Cl)ccc1C(=S)N1CSCC21 (stereo not given) | > 100 µM | > 100 µM | > 100 µM | > 100 µM | > 100 µM | > 100 µM | > 100 µM | > 100 µM | > 100 µM | > 100 µM |
| O=C(O)C(O)C(O)C(O)C(O)CO (stereo not given) | > 100 µM | > 100 µM | > 100 µM | > 100 µM | > 100 µM | > 100 µM | > 100 µM | > 100 µM | > 100 µM | > 100 µM |
| C[C@@H]1CCC2[C@@H](C)[C@@H](O[C@H]3O[C@@H]4O[C@@]5(C)CCC6[C@H](C)CCC([C@H]3C)[C@]64OO5)O[C@@H]3O[C@@]4(C)CCC1[C@@]23OO4 (stereo not given in full) | > 25 µM | > 25 µM | > 25 µM | > 25 µM | > 25 µM | > 25 µM | > 25 µM | > 25 µM | > 25 µM | > 25 µM |
| CC(C)Oc1cccc(N2C(=NCc3c[nH]c4ccccc34)Nc3ccncc3S2(=O)=O)c1 | > 100 µM | > 100 µM | 97.9 µM | 62.6 µM | > 100 µM | > 100 µM | 83.4 µM | 87.2 µM | > 100 µM | > 100 µM |
| CC1=C(C#N)c2nc3ccccc3n2C(=O)C1(C)CCO (stereo not given) | > 100 µM | > 100 µM | > 100 µM | > 100 µM | > 100 µM | > 100 µM | > 100 µM | > 100 µM | > 100 µM | > 100 µM |
| CCOC(=O)C(NC(=O)CC)(N1CCN(c2cc3c(cc2F)c(=O)c(C(=O)O)cn3C2CC2)CC1)C(F)(F)F (stereo not given) | > 100 µM | > 100 µM | > 100 µM | > 100 µM | > 100 µM | > 100 µM | > 100 µM | > 100 µM | > 100 µM | > 100 µM |
| c1ccc(C(C(=Nc2ccc(Cc3ccc(N=C(C(c4ccccc4)c4ccccc4)N4CC4)cc3)cc2)N2CC2)c2ccccc2)cc1 | 38.3 µM | 11.1 µM | 23.6 µM | 70 µM | 28 µM | 16.1 µM | 22.6 µM | 19.8 µM | 22.3 µM | 65.5 µM |
| CCCCOCCOC1=C(Cl)C(=O)c2c(O)ccc(O)c2C1=O | 4.63 µM | 6.65 µM | 6.01 µM | 0.525 µM | 3.08 µM | 0.668 µM | 3.08 µM | 1.33 µM | 4.64 µM | 0.505 µM |
| COc1ccc(C(=O)NCCN(C)C)c2nc3ccccc3cc12 | 3.26 µM | 8.69 µM | 8.34 µM | 2.99 µM | 3.85 µM | 6.67 µM | 4.82 µM | 2.6 µM | 2.4 µM | 12.1 µM |
| Cc1nc2ccccc2c(-n2cccn2)c1CCn1cccn1 | > 100 µM | > 100 µM | > 100 µM | > 100 µM | > 100 µM | > 100 µM | > 100 µM | > 100 µM | > 100 µM | > 100 µM |
| COc1ccc(/C=N/NC(=O)c2ccc(O)c(CN(C)C)c2)cc1 | > 100 µM | > 100 µM | > 100 µM | > 100 µM | > 100 µM | > 100 µM | > 100 µM | 90.3 µM | > 100 µM | > 100 µM |
| CC(C)N1CCN(c2ccc(OCC3COC(Cn4cncn4)(c4ccc(Cl)cc4Cl)O3)cc2)CC1 (stereo not given) | 30.1 µM | 28.9 µM | 21.1 µM | > 20 µM | 31.5 µM | 25 µM | 35.1 µM | 30.4 µM | > 52 µM | 14.5 µM |
| C=CCn1c(=O)ccn(/C(=C/C(=O)OCC)C(=O)OCC)c1=O | > 31.6 µM | 74.3 µM | 31.8 µM | 28.1 µM | 50.2 µM | 28.5 µM | 27.9 µM | 7.57 µM | 32.3 µM | 11.7 µM |
| Cc1ccc2c(c1)c1ccc3c(c1n2C)C(=O)C=CC3=O | > 10 µM | > 10 µM | > 10 µM | 4.54 µM | > 10 µM | 3.46 µM | > 9.27 µM | 2.68 µM | > 10 µM | 3.44 µM |
| CO/N=C(/C(=O)OC)c1ccccc1COc1ccccc1C(F)(F)F | > 100 µM | 91.8 µM | > 100 µM | > 100 µM | > 100 µM | > 100 µM | > 100 µM | 56.3 µM | > 100 µM | > 100 µM |

| SMILES | TGI [1] | TGI [2] | TGI [3] | TGI [4] | TGI [5] | TGI [6] | TGI [7] | TGI [8] | TGI [9] | TGI [10] |
| --- | --- | --- | --- | --- | --- | --- | --- | --- | --- | --- |
| COc1cc2c(cc1OCCCN1C(=O)c3cccc4cccc(c34)C1=O)N=C[C@@H]1CCCN1C2=O | > 100 µM | > 100 µM | > 100 µM | > 100 µM | > 100 µM | 34.2 µM | > 100 µM | 27.9 µM | > 100 µM | 54.3 µM |
| Cc1ccc(/C=C2/N=C(N/N=C\C(O)C(O)C(O)C(O)CO)NC2=O)cc1 (stereo not given) | > 100 µM | > 100 µM | > 100 µM | > 100 µM | > 100 µM | > 100 µM | > 100 µM | > 100 µM | > 100 µM | > 100 µM |
| N#Cc1sc2c(c1OC(=O)c1ccc(C(F)(F)F)cc1)c(=O)n(-c1ccccc1)c(=S)n2-c1ccccc1 | 99.8 µM | > 100 µM | > 100 µM | 81.7 µM | > 100 µM | 61.7 µM | > 100 µM | 3.51 µM | > 100 µM | > 100 µM |
| Cc1c2c(c(C)n1-c1ccccc1)C(=O)N(CCN1CCN(c3cccc(C(F)(F)F)c3)CC1)C2=O | > 100 µM | > 100 µM | > 100 µM | > 100 µM | > 100 µM | > 100 µM | > 100 µM | > 100 µM | > 100 µM | > 100 µM |
| O=c1c2c(no[n+]2[O-])c2ccccc2n1-c1ccccc1 | 30.7 µM | 21.7 µM | 20.6 µM | 8.25 µM | > 74.2 µM | 14.7 µM | 21.4 µM | 3.27 µM | 35.1 µM | 9.97 µM |
| Cn1c2ccccc2c2c(=S)c3ccccc3ccc21 | > 100 µM | > 100 µM | > 100 µM | > 100 µM | > 100 µM | > 100 µM | > 100 µM | > 100 µM | > 100 µM | > 100 µM |
| COc1cc(O)c2c(=O)c(OC)c(-c3ccc(OC)c(O)c3)oc2c1 | > 100 µM | > 100 µM | > 100 µM | > 100 µM | > 100 µM | > 100 µM | > 100 µM | > 100 µM | > 100 µM | > 100 µM |
| CCOC(=O)/C(C(C)=O)=C(\OC(C)=O)c1ccncc1C(=O)O | > 100 µM | > 100 µM | > 100 µM | > 100 µM | > 100 µM | > 100 µM | > 100 µM | > 100 µM | > 100 µM | > 100 µM |
| CC(C)(C)OC(=O)NC(CSSCC(NC(=O)OC(C)(C)C)C(=O)O)C(=O)O (stereo not given) | > 100 µM | > 100 µM | > 100 µM | > 100 µM | > 100 µM | > 100 µM | > 100 µM | > 100 µM | > 100 µM | > 100 µM |
| COC(=O)c1ccccc1CC1Cc2cccc(C)c2C1=O (stereo not given) | 71.5 µM | > 100 µM | > 100 µM | > 100 µM | > 100 µM | 63.7 µM | 77.8 µM | 57.2 µM | > 100 µM | > 100 µM |
| O=C(CNc1ccc(Cl)cc1Cl)Nn1c(-c2ccccc2)nc2ccccc2c1=O | 58.3 µM | > 100 µM | 31.8 µM | 30.8 µM | 27.5 µM | 36.5 µM | 29.9 µM | 25.7 µM | > 100 µM | 35.1 µM |
| O=C1C(=Nc2ccc(Nc3ccccc3)cc2)Oc2ccccc21 | 16.8 µM | 23 µM | 23.4 µM | 5.38 µM | 21 µM | 4.89 µM | 8.58 µM | 4.3 µM | 10.7 µM | 3.37 µM |
| O=C(CC(=O)Nc1ccccc1)NNC(Sc1ccccc1)c1cc(N=Nc2ccc(Br)cc2)ccc1O (stereo not given) | 5.04 µM | > 10 µM | > 10 µM | 3.47 µM | > 10 µM | > 10 µM | > 10 µM | > 10 µM | > 10 µM | > 10 µM |
| c1ccc(C2=NOC(c3ccccc3)N2C23CC4CC(CC(C4)C2)C3)cc1 (stereo not given) | > 10 µM | > 10 µM | > 10 µM | > 10 µM | > 10 µM | > 10 µM | > 10 µM | > 10 µM | > 10 µM | > 10 µM |
| CSc1nc2c(c(N(C)C)n1)C(O)n1c(nc3ccccc31)S2 (stereo not given) | > 100 µM | 43.6 µM | > 100 µM | > 100 µM | > 100 µM | 65.3 µM | > 100 µM | 39.2 µM | > 100 µM | > 100 µM |
| CCOc1c(OC)cc(-c2nc3n(n2)C(=O)C(CC)S3)cc1OC (stereo not given) | > 10 µM | > 10 µM | > 10 µM | > 10 µM | > 10 µM | > 10 µM | > 10 µM | > 10 µM | > 10 µM | > 10 µM |
